Data published in US9131685B2, “Compositions comprising a strigolactone compound and a chito-oligosaccharide compound for enhanced plant growth and yield” (Bayer CropScience AG, priority 2009, dated 2015).

What was measured:
soybean = experiment: Greenhouse experiments on soybean (seed treatment, root weight and leaf area); format: in vivo, soybean (variety Cordoba); settings: sand/perlite with arbuscular mycorrhizal inoculum, 6 weeks greenhouse, average of 3 replicates of 5 plants
Description: Test is performed in the greenhouse. 5 soybean seeds per treatment of the variety Cordoba were sown in 500 ml rose pots (7×7×18 cm) containing a mix of sand and perlite (1:1). 3 replicates were made. The active ingredient was solved in a solvent and seed treatment was performed with a lab equipment.
To inoculate with arbuscular mycorrhizal fungi, 10 g inoculum (Vaminoc; MicroBio Ltd.) were mixed with 1 l of the sand-perlite mixture.
Seeds were covered by 3 cm of LECA (light expanded clay aggregate). Pots were incubated in the greenhouse for 6 weeks at 22° C./15° C. (day/night) and 80% relative humidity. Assessment consisted of root weight and leaf area.
average of 3 replicates of 5 plants

wheat seeds = experiment: Germination test on wheat (agar plates, climate chamber); format: in vivo, wheat (variety Tuareg); settings: seed treatment, 10° C. in darkness, after 2 days, average of 5 replicates of 20 seeds
Description: For wheat experiments 20 wheat seeds per treatment of the variety Tuareg were sown on agar plates (1.4% agar). 5 replicates were made. The active ingredient was solved in a solvent and seed treatment was performed with a lab equipment. Plates were incubated at 10° C. in darkness. After 2 days the germination rate and root length were assessed.
(§1) average of 5 replicates of 20 seeds

soybean seeds = experiment: Germination test on soybean (agar plates, climate chamber); format: in vivo, soybean (variety Cordoba); settings: seed treatment, 10° C. in darkness, after 4 days, average of 5 replicates of 20 seeds
Description: Test is performed in a climate chamber. 20 soybean seeds per treatment of the variety Cordoba were sown on agar plates (0.8% agar). 5 replicates were made. The active ingredient was solved in a solvent and seed treatment was performed with a lab equipment. Plates were incubated at 10° C. in darkness. After 4 days the germination rate and root length were assessed.
as §1

Winter wheat = experiment: Field trials 2: winter wheat, Germany (Bergisches Land); format: in vivo, Winter wheat (variety Dekan); settings: in comparison to the untreated control
Description: b) Field trials 2: Winter wheat: Germany (Bergisches Land):
Seeds of the variety “Dekan” were planted on December with a seed density of 400 seeds/m^2 on a non-fertilized soil. The plot size was 6 m×2.5 m (=15 m^2) and four randomised replicates were used. The application of plant protection products were carried out according to the good agricultural practise. The evaluation of different growth parameters was done during the season.
Dosages Winter Wheat (Bergisches Land):
Base: Insecticide (I): Imidacloprid; Fungicides (F): Fluoxastrobin & Tebuconazole & Prothioconazole.

| SMILES | Leaf Area (soybean) [cm^2] | Root weight (soybean) [g] | Germination rate (wheat seeds) [%] | Root length (wheat seeds) [cm] | Germination rate (soybean seeds) [%] | Root length (soybean seeds) [cm] | yield in dt/ha, in words (Winter wheat) |
| --- | --- | --- | --- | --- | --- | --- | --- |
| CC1=CC(O/C=C2/C(=O)OC3c4ccccc4CC23)OC1=O (stereo not shown) [Compound A1] | 35.67 | 11.13 | 27 | 3.04 | 63 | 5.19 |  |
| CCCCCC/C=C\CCCOc1cccc(C(=O)NC2C(O)[C@H](O)C(CO)O[C@H]2O[C@@H]2C(CO)O[C@@H](O[C@@H]3C(CO)O[C@@H](O[C@@H]4C(CO)O[C@@H](O[C@@H]5C(CO[C@@H]6OC(C)[C@@H](O)C(O)C6O)OC(O)C(NC(C)=O)C5O)C(NC(C)=O)C4O)C(NC(C)=O)C3O)C(NC(C)=O)C2O)c1 (stereo partly shown) [Compound B2] |  |  | 18 | 2.02 | 68 | 5.61 |  |
| CCCCCC/C=C\CCCOc1cccc(C(=O)NC2C(O[C@@H]3C(CO)OC(OC4C(CO)O[C@@H](O[C@@H]5C(CO)OC(OC6C(CO[C@@H]7OC(C)C(O)C(O)C7OC)OC(O)C(NC(C)=O)C6O)C(NC(C)=O)C5O)C(NC(C)=O)C4O)C(NC(C)=O)C3O)OC(CO)[C@@H](O)C2O)c1 (stereo partly shown) [Compound B3] |  |  | 17 | 2.18 | 59 | 5.13 |  |
| CCCCCC/C=C\CCCOc1cccc(C(=O)NC2C(O[C@@H]3C(CO)OC(OC4C(CO)O[C@@H](O[C@@H]5C(CO)OC(OC6C(CO)OC(O)C(NC(C)=O)C6O)C(NC(C)=O)C5O)C(NC(C)=O)C4O)C(NC(C)=O)C3O)OC(CO)[C@@H](O)C2O)c1 (stereo partly shown) [Compound B1] | 36.82 | 9.19 | 8 | 2.34 | 58 | 5.64 | increased yield |
| CON=C(C(=O)OC)c1ccccc1CON=C(C)c1cccc(C(F)(F)F)c1 [Trifloxystrobin, reference compound] | 24.80 | 18.2 |  |  |  |  |  |
| OC(Cc1ccccc1Cl)(Cn1nc[nH]c1=S)C1(Cl)CC1 (stereo not shown) [Prothioconazole, reference compound] | 20.58 | 16.8 |  |  |  |  |  |
